Reference: patent CN110483432A, “一类丙烯酸类化合物及其制备方法、药物组合物和用途” (Shanghai Institute of Materia Medica of CAS, priority 2018, dated 2019)

How the values were obtained:
[1] = biological target: CREB/CRTC2 (Homo sapiens, UniProt P16220+Q53ET0); assay: Mammalian two-hybrid (CREB-GAL4-BD / CRTC2-VP16-AD, Gal4-luciferase reporter) test of inhibition of CREB/CRTC2 protein interaction in HEK293 cells; assay type: cell-based; settings: 50 μM final concentration; HEK293 two-hybrid activation model (Forsklin); overnight; read-out: relative reporter gene activity (vs solvent control DMSO, set to 100%)
Sequence of CREB/CRTC2 (P16220 whole entry, the tested form may be a part): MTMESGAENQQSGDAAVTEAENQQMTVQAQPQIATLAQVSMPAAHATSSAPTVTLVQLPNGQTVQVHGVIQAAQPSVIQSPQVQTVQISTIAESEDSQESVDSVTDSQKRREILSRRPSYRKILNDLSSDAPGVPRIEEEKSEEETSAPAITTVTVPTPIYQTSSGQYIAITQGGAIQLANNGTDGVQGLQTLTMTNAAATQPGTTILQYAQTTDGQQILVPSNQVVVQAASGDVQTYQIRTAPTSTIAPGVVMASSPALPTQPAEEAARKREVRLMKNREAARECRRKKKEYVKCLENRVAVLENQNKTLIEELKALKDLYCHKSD
Sequence of CREB/CRTC2 (Q53ET0 whole entry, the tested form may be a part): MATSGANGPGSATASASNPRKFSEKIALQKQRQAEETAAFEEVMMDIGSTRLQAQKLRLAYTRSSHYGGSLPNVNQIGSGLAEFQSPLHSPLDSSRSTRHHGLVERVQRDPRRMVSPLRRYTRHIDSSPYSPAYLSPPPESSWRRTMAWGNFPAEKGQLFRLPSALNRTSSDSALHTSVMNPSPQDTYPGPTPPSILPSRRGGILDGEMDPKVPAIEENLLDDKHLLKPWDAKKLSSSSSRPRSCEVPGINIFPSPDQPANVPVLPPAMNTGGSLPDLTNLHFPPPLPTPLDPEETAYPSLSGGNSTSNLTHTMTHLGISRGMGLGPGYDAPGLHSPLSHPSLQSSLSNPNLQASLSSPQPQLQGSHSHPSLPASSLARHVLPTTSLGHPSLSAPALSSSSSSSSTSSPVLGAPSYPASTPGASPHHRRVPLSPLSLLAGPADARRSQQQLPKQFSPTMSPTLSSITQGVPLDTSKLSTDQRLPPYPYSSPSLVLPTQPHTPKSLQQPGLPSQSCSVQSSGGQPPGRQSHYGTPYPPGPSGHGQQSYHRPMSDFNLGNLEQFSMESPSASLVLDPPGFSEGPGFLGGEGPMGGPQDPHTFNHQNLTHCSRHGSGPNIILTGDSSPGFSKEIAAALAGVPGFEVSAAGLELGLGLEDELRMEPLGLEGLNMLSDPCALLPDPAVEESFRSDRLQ

[2] = Cytotoxicity test in HEK293 cells (CCK8); assay type: cell-based; settings: human, overnight, HEK293, CCK8 OD450, read-out: cell viability
[3] = system: CREB phosphorylation (Ser133) (CREB的磷酸化(Ser133)); assay: Western blot of CREB phosphorylation (Ser133) in glucagon signalling pathway; assay type: cell-based, mouse; settings: 20 μM, 1 h preincubation, glucagon 100 nM, 30 min, primary hepatocytes or liver tissue

Which remaining activity at 50 µM [1] does the source give for `O=C(/C=C/c1cccc(-c2ccccc2)c1)N1C(=O)OC[C@@H]1c1ccccc1` [A57, (S,E)-3-(3-([1,1’-联苯基]-3-基)丙烯酰)-4-苯基噁唑烷-2-酮] here?
The remaining activity at 50 µM was less than 30%.

And the viability at 50 µM [2]?
The viability at 50 µM was roughly 100%.

What about the “effect on glucagon-stimulated CREB phosphorylation level” value [3] of the same molecule?
The value was “没有显著的影响”.
